Experimental data: paper PMC12397098, “3-Monothiopomalidomide, a new immunomodulatory imide drug (IMiD), blunts inflammation and mitigates ischemic stroke in the rat” (GeroScience, 2025)

Legend:
[1] = 3-MP nanosuspension time-dependent stability (LC-MS); format: physicochemical
Method: Thalidomide, pomalidomide, and most related analogues have poor aqueous solubility. As a consequence, to aid biological evaluation, a 3-MP nanosuspension was prepared in line with our prior study. Specifically, the drug was mixed in an aqueous solution (Tween 80/water) and vortexed for 10 min. The coarse drug suspension was then placed in Eppendorf microtubes containing approximately 0.4 g of 0.1–0.2 mm yttrium-stabilized zirconia-silica beads (Silibeads® Typ ZY Sigmund Lindner, Germany). These were vortexed twice, at 3000 rpm for 45 min, using a beads-milling cell disruptor (Disruptor Genie®, Scientific Industries, USA). […] To evaluate the stability of the 3-MP nanosuspension, a vial (241 μM, 4 °C) was time-dependently sampled over a 98-day period, and the drug was quantified by LC–MS (see Supplementary information). […]
Nanoformulation LC/MS Assays: A rudimentary assay was devised to assess the relative stability of nanoformulated 3-MP. In short, a sample of nanoformulated 3-MP was monitored for degradation until, roughly, 10% of the original material was lost due to hydrolysis and other such factors. […] These samples were immediately analyzed. […] The areas of the ensuing UV peaks detected at 254nm served as the basis for analysis, and the stock nanoformulation was monitored as a function of derivation from the 3-MP nanoformulation t=0 area (defined as “100% Area Percent” in the initial trace). […]

[2] = Ex vivo plasma stability, human; format: in vitro ADME; details: 100 μg/ml, 37 °C, 180 min
Method: Ex vivo evaluations of drug plasma and liver microsomal time-dependent breakdown are routinely undertaken to initially characterize the metabolic stability of new pharmacological compounds and were performed by WuXi AppTec (Shanghai, China; Study No. 424847–20,211,214-MMS). Rat and human plasma and liver microsomes were purchased from Xenotech (Sprague Dawley rat, Catalog no. R1000; BioIVT, Westbury, NY) or Corning (mixed human, Catalog no. 452117; Sigma). Rat and human plasma was incubated at 37 °C on a shaker and spiked with 3-MP (100 μg/ml, n = 3). Thereafter, samples were time-dependently (0 to 180 min) removed, immediately frozen (− 80 °C), and subjected to LC–MS/MS analysis at a later time.

Structure (SMILES): Nc1cccc2c1C(=S)N(C1CCC(=O)NC1=O)C2=O (stereo not drawn) [3-MP, 3-Monothiopomalidomide]
- area of the 3-MP peak, relative intensity ([1]; nanoformulated 3-MP stock stored in the dark at 4 °C, t=98 days, UV 254 nm, relative to t=0): below 90%
- stability of 3-MP nanosuspension ([1]; nanosuspension in Tween-80/water, 241 μM, 4 °C, 98-day period, LC–MS/MS): time-dependently stable
- stability in human plasma [2]: relatively stable
